The term kinetic solubility denotes the concentration staying in solution when a stock, usually in DMSO, is diluted into the medium.

Here are results for 51 compounds from PubChem BioAssay AID1996.

Values after ≈ are worked out from the molar mass of the structure shown. Where only a bound is given, the exact number is not on record here.

The conditions of the series: buffer; pH 7.4; 200.0 µM.
The compound `CCC(C(=O)Nc1ccc(C(=O)N2CCCC2)cc1)c1ccccc1` (stereo unspecified) had a kinetic solubility of over 50.5 µg/mL.
With `CCOc1ccccc1Nc1nc(N)nc(CN2CCCCC2C)n1` (stereo unspecified) the figure was over 51.4 µg/mL.
With `O=C(Nc1cc(C(F)(F)F)ccc1N1CCOCC1)c1ccncc1` the figure was over 52.7 µg/mL.
With `Cc1cc2oc(C(=O)N3CCN(Cc4ccccc4)CC3)c(C)c2cc1C` the figure was 3.7 µg/mL (≈ 10.2 µM).
`CCOC(=O)C1=C(C)C(c2ccc(OC)cc2)NC(=O)N1` (stereo unspecified) showed a solubility (kinetic) of over 43.5 µg/mL.
With `O=C(Oc1ccc(F)cc1)c1cccnc1` the figure was 26.7 µg/mL (≈ 123 µM); with `CC(C)C/C(=N/O)c1cn(C)c2ccccc12`, 21.5 µg/mL (≈ 93.4 µM).
As for `COc1ccc(-c2onc(C)c2-c2ccc3c(c2)OCCO3)c(O)c1`, the figure is 2.6 µg/mL (≈ 7.66 µM); as for `Cc1ccc(CNC(=O)Cc2cn(C)c3ccccc23)cc1`, 2.2 µg/mL (≈ 7.52 µM).
With `O=c1c2ccccc2ncn1CCCCOc1ccccc1F` the figure was 37.3 µg/mL (≈ 119 µM); with `COc1ccc(-n2ccc(=O)c(C(=O)O)n2)cc1`, over 36.9 µg/mL; with `CCOC(=O)C1=C[C@]2(CC)CCCN3CCc4c(n1c1ccccc41)[C@@H]32`, 35.5 µg/mL (≈ 101 µM).
In the case of `Cc1ccc(-n2nc(C)cc2NC(=O)CC#N)cc1`, the kinetic solubility was over 38.1 µg/mL.
As for `CCc1ccc(C(=O)CN2C(=O)NC(C)(c3ccc(C)cc3)C2=O)cc1` (stereo unspecified), the figure is 2.1 µg/mL (≈ 5.99 µM); as for `O=C(O)CSc1ncccn1`, over 25.5 µg/mL; as for `N[C@H]1CONC1=O`, over 15.3 µg/mL.
For the compound `Cc1sc2ncnc(N3CCCC(C)C3)c2c1C.Cl` (stereo unspecified), the solubility (kinetic) came out at 11 µg/mL.
Regarding `COc1ccc(-c2csc(N)n2)cc1F`, the kinetic solubility was 23.8 µg/mL (≈ 106 µM). Against the preceding compound, the solubility kinetic is about 2.2-fold higher.
With `COC(=O)c1ccccc1NC(=O)c1onc(C)c1Cl` the figure was under 0.3 µg/mL; with `Cc1cccc(C)c1NC(=O)CN(C)C(=O)C1CC1C` (stereo unspecified), over 41.2 µg/mL; with `COc1ccc(CSC2=CS(=O)(=O)c3ccccc3N2)cc1`, 9.8 µg/mL (≈ 29.4 µM).
In turn, `CCCC(=O)Nc1cc(C(=O)O)ccc1Sc1ccc(C)cc1` had a kinetic solubility of over 49.4 µg/mL.
With `Cn1cnc2c1c(=O)n(Cc1ccc(Cl)cc1Cl)c(=O)n2C` the figure was over 50.9 µg/mL; with `CC(NC(=O)CSc1ccccc1)c1ccccc1` (stereo unspecified), 37.1 µg/mL (≈ 137 µM); with `CC(C)CCCC(C)CCOC(=O)CN1CCCC1` (stereo unspecified), 1.9 µg/mL (≈ 7.05 µM).
With `O=C(O)CNS(=O)(=O)c1cccc(Cl)c1` the figure was over 37.5 µg/mL; with `O=C(COC(=O)C1(c2ccccc2F)CCCC1)N1CCNC1=O`, over 50.2 µg/mL.
As for `Cc1cc(C)c2c(c1)N[C@H](c1cccs1)[C@@H]1CCO[C@H]21`, the figure is 1.7 µg/mL (≈ 5.96 µM).
As to `Cc1ccccc1N(Cc1cc(=O)[nH]c2ccccc12)C(=O)C(C)C`, the solubility (kinetic) was determined as 36 µg/mL (≈ 108 µM).
With `O=C(NC(c1ccccc1)c1ccccn1)c1cccc([N+](=O)[O-])c1` (stereo unspecified), the kinetic solubility was 38.3 µg/mL (≈ 115 µM).
With `OCCN1CCN(c2cc(C(F)(F)F)nc3ccccc23)CC1` the figure was over 48.8 µg/mL.
With `Cc1cccc(C(=O)Nc2cccc(C(=O)Nc3cc(C)ccn3)c2)c1` the figure was 0.9 µg/mL (≈ 2.61 µM); with `Cc1cccc(C(=O)OC2CCCN(C)C2)c1C.Cl` (stereo unspecified), 36.9 µg/mL; with `CN(Cc1ccccc1)C(=O)COc1ccc(Br)cc1Cl`, 12.6 µg/mL (≈ 34.2 µM).
On to `CC(C)(CCO)Nc1ncnc2onc(-c3ccc(F)cc3)c12`, for which the kinetic solubility is over 47.5 µg/mL.
For `NS(=O)(=O)c1cccc(NC(=O)c2cccc(N3C(=O)c4ccccc4C3=O)c2)c1`, the kinetic solubility amounted to 12.2 µg/mL (≈ 28.9 µM).
With `Cc1cccc(CC(=O)NCCN2CCCCC2)c1` the figure was 32.5 µg/mL (≈ 125 µM).
With `OCC1(Cc2ccccc2)CCCN(Cc2c[nH]c3ccccc23)C1` (stereo unspecified) the figure was 36 µg/mL (≈ 108 µM); with `O=C1C(=O)N(CC(=O)N2CCCC2)c2ccccc21`, 38.2 µg/mL (≈ 148 µM); with `Cc1ccc(S(=O)(=O)N2CCCCC2)cc1`, 20 µg/mL (≈ 83.6 µM).
As for `Cc1ccccc1OC(C)C(=O)NCc1cccnc1` (stereo unspecified), the figure is 38.1 µg/mL (≈ 141 µM); as for `COc1ccccc1C(=O)NC(=O)CSc1cccc[n+]1[O-]`, over 47.8 µg/mL; as for `CCN1CCN(S(=O)(=O)c2c(C)cc(C)cc2C)CC1`, over 44.5 µg/mL.
Consider `CSc1ccc(C(=S)N2CCCCCC2)cc1`, for which the kinetic solubility was 12.9 µg/mL (≈ 48.6 µM).
As for `CCCN1CCC(NCC(C)c2ccccc2)CC1` (stereo unspecified), the figure is 38.8 µg/mL (≈ 149 µM).
`OC1(C(F)(F)F)CC(c2ccc3ccccc3c2)=NO1` (stereo unspecified) came in with a solubility (kinetic) of over 42.2 µg/mL.
With `CNS(=O)(=O)c1ccc(N2CCCC2)c([N+](=O)[O-])c1` the figure was over 42.8 µg/mL; with `Oc1ccccc1C(=S)N1CCN(c2cccc(Cl)c2)CC1`, 20 µg/mL (≈ 60.1 µM).
For `COc1ccc(CC(=O)OCC(=O)NC2CCCC(C)C2C)cc1OC` (stereo unspecified), the kinetic solubility is over 54.5 µg/mL.
On to `N/C(=N\OC(=O)c1ccc(F)cc1)c1cccc([N+](=O)[O-])c1`, for which the kinetic solubility is 2.3 µg/mL (≈ 7.58 µM).
As to `N#Cc1ccccc1NC(=O)c1ccc2c(c1)OCCO2`, the solubility (kinetic) came out at 37.4 µg/mL (≈ 133 µM).
